This note sets out measurements from patent US7560569B2, “Bicycloamide derivative” (Kyorin Pharmaceutical Co., Ltd, priority 2004, dated 2009).

Experiment [1] deals with plasma dipeptidylpeptidase IV (UniProt P27487). Put plainly: In vitro dipeptidylpeptidase IV inhibition (H-Gly-Pro-AMC hydrolysis, fluorometry). The format is biochemical. The settings on record: plasma diluted 8-fold, H-Gly-Pro-AMC.HBr substrate, room temperature 20 minutes. As for the experimental part: The concentration of free 7-amino-4-methyl-coumarin (AMC) generated by hydrolysis of H-Gly-Pro-AMC.HBr substrate by plasma dipeptidylpeptidase IV was determined by fluorometry.
A 20 μL of buffer (25 mmol/L hepes, 140 mmol/L sodium chloride, 1% bovine serum albumin, 80 mmol/L magnesium chloride hexahydrate, pH 7.4) containing each compound was added to 20 μL of plasma diluted 8-fold with saline in a well of a 96-well flat bottom plate. The plate was left at room temperature for 5 minutes and 10 μL of 0.1 mmol/L H-Gly-Pro-AMC.HBr solution was added to each well to initiate the reaction. […] Using a fluorescent plate reader, the free AMC concentration was determined by exciting the samples at 355 nm and measuring the fluorescence intensity at 460 nm.

For experiment [2], the target named is T1, plasma dipeptidylpeptidase IV (Mus musculus, UniProt P28843).
T1 construct: The blood samples were centrifuged at 6000 rpm for 2 minutes to separate plasma; tissue Charles River Laboratories Japan; host or cells: plasma of male ICR mice
The experiment can be described thus: Inhibition of plasma dipeptidylpeptidase IV activity in mice by oral administration. The format is in vivo. The settings on record: male ICR mice, 0.1 mg/mL at 10 mL/kg, plasma 30 minutes after administration vs before. On the procedure: Each compound was suspended in 0.3% sodium carboxymethylcellulose to a concentration of 0.1 mg/mL. The preparation was orally administered to 8-week old male ICR mice (Charles River Laboratories Japan) at a dose of 10 mL/kg. Using an EDTA 2K-treated capillary tube, blood samples were collected from the tail vein before administration and 30 minutes after administration. The blood samples were centrifuged at 6000 rpm for 2 minutes to separate plasma. […] The inhibition was determined from the decrease in the enzymatic activity from the initial activity (% inhibition={(activity before administration−activity after administration)/(activity before administration)}×100).

T1 sequence (P28843 37-760 limits assumed): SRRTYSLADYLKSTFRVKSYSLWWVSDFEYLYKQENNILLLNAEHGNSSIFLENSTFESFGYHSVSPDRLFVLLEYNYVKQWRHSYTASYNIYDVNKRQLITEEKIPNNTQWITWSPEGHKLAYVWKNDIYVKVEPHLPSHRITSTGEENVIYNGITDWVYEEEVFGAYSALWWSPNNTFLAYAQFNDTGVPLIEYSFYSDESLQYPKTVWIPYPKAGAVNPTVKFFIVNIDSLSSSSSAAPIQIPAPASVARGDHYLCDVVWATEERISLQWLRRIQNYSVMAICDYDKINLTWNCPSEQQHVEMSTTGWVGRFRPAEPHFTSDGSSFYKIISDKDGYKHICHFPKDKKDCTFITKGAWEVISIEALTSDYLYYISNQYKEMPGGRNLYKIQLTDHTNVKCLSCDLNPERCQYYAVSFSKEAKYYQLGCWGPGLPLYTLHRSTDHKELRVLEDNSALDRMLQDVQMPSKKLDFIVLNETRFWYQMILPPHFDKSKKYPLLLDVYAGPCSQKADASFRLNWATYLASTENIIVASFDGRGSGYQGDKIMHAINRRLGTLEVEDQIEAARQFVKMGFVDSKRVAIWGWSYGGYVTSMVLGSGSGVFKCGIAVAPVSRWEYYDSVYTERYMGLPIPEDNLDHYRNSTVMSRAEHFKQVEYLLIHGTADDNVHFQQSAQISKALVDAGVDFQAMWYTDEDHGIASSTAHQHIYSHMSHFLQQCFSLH

What is called IC50 is the concentration that gives 50% inhibition. Low readings indicate greater potency, high ones weaker potency. In experiment [1], `CN1CCN(C(=O)C23CCC(NCC(=O)N4C[C@@H](F)C[C@H]4C#N)(CC2)CC3)CC1` [Example 8, (2S,4S)-4-fluoro-1-[[N-[4-(4-methylpiperazin-1-yl)carbonylbicyclo[2.2.2]oct-1-yl]amino]acetyl]pyrrolidine-2-carbonitrile] returned an IC50 of 0.83 nM.
As usually defined, the inhibition is the change of the read-out against control, counted positive when it falls. Read a low inhibition as a weak effect. On to `CC(C)(C)NC(=O)C12CCC(NCC(=O)N3C[C@@H](F)C[C@H]3C#N)(CC1)CC2` [Example 30, (2S,4S)-1-[[N-[4-(N-2,2-dimethylethylamino)carbonylbicyclo[2.2.2]oct-1-yl]amino]acetyl]-4-fluoropyrrolidine-2-carbonitrile], for which the inhibition at 100 µg/mL (stock) in experiment [2] was determined as 77%.
The same measure, in the same setting: then `N#C[C@@H]1C[C@H](F)CN1C(=O)CNC12CCC(C(=O)N3CCC3)(CC1)CC2` [Example 15, (2S,4S)-1-[[[4-(azetidin-1-yl)carbonylbicyclo[2.2.2]oct-1-yl]amino]acetyl]-4-fluoropyrrolidine-2-carbonitrile], with 66%.
In turn, `C=CCNC(=O)C12CCC(NCC(=O)N3C[C@@H](F)C[C@H]3C#N)(CC1)CC2` [Example 52, (2S,4S)-4-fluoro-1-[[N-[4-[N-(2-propenyl)amino]carbonylbicyclo[2.2.2]oct-1-yl]amino]acetyl]pyrrolidine-2-carbonitrile] came in with an inhibition at 100 µg/mL (stock) in experiment [2] of 70%. This molecule came in with an IC50 in experiment [1] of 0.057 nM.
In experiment [1], `N#C[C@@H]1C[C@H](F)CN1C(=O)CNC12CCC(C(=O)N3CC[C@@H](F)C3)(CC1)CC2` [Example 16, (2S,4S,3′ R)-4-fluoro-1-[[N-[4-(3-fluoropyrrolidin-1-yl)carbonylbicyclo[2.2.2]oct-1-yl]amino]acetyl]pyrrolidine-2-carbonitrile] had an IC50 of 0.082 nM.
For `CN(C)C(=O)C12CCC(NCC(=O)N3C[C@@H](F)C[C@H]3C#N)(CC1)CC2` [Example 9, (2S,4S)-1-[[N-[4-(dimethylamino)carbonylbicyclo[2.2.2]oct-1-yl]amino]acetyl]-4-fluoropyrrolidine-2-carbonitrile], the inhibition at 100 µg/mL (stock) in experiment [2] turned out to be 87%.
Regarding `N#C[C@@H]1C[C@H](F)CN1C(=O)CNC12CCC(C(N)=O)(CC1)CC2` [Example 1, (2S,4S)-1-[[(4-carbamoylbicyclo[2.2.2]oct-1-yl)amino]acetyl]-4-fluoropyrrolidine-2-carbonitrile], the inhibition at 100 µg/mL (stock) in experiment [2] was 71%. The same molecule came in with a concentration for half-maximal inhibition (IC50) in experiment [1] of 0.89 nM.
